Seven molecules from patent publication US5166348A, “Bornyl and isobornyl esters of carboxylic acids of condensed tetrahydroquinoxalines” (Uralsky politekhnichesky institut, priority 1989, dated 1992) can be followed below.

Values joined by “and” are separate entries in the source; they are usually repeats but may differ in a detail not shown here. Identical values can stand only once. “Also recorded” adds a separate entry of the source. Like-named read-outs stand apart in the source and are kept apart here.

One series concerns influenza virus B. The series is classed as in vivo, albino mice. Conditions: for % of diseased mice and of died mice / % of diseased mice and died mice / Efficiency, % / Elongation of animal life in test group (compared with control) / Mean Incubation / Protection factor / Elongation of animals life in test group compared with control / Mean incubation period / Factor of reduction of number of diseased mice (protection factor): influenza virus B; for Factor of reduction of number of diseased mice (protection factor): compared with control.

Series [1] has as its system mice. The settings on record: mouse, in vivo.
The nature of series [2]: acute toxicity, oral, mongrel albino mice. Conditions: mouse, in vivo. As to the method:
Acute toxicity of the proposed compounds 1a through 1e was tested in experiments on mongrel albino mice with oral administration of the drug.

Series [3] relates to influenza virus C, C(Leningrad)412/83. The series is classed as in vivo, chick embryos.
The test system of series [4] is influenza virus C, C(USA)1233/47. The series is classed as in vivo, chick embryos.
A further series relates to influenza virus C. In words: activity against influenza virus C in chick embryos, summary. The class given is in vivo. From the text: The activity of the proposed compound 1a against influenza virus C has been studied.
Series [5] relates to influenza virus. Conditions: given intranasally to pregnant mice + influenza virus.
For series [6], the system named is tick-borne encephalitis virus (Absettar strain). The series is classed as in vivo, mongrel albino mice.
Series [7] relates to mice. Description: toxicity for mice. Conditions: compared with remantadine.
Series [8] concerns RS virus (strain Novoshakhtinsky 3080). In words: reproduction of RS virus in L-41 tissue culture. The series is classed as cell-based. The procedure:
(§1) Activity of the proposed compound 1a to the agent causing respiratory syncytial infection was tested. […]

Another series has as its system RS virus. In words: RS virus reproduction in the lungs of infected cotton rats. The class given is in vivo. Conditions: intranasally. As to the method: as §1
Series [9] relates to influenza virus. The series is classed as in vivo, mice.
The test system of series [10] is influenza virus. The class given is in vivo, mice. This is another data set of the same source.
A further series relates to viruses. In words: spectrum of antiviral activity, summary.
The test system of series [11] is influenza virus C, C(Ulan-Ude)131/86. The class given is in vivo, chick embryos.
The subject of series [12] is influenza virus C, C(Leningrad)393/87. The series is classed as in vivo, chick embryos.
[13] abbreviates: 1 mg/mouse, 24 hours and 1 hour before and 24, 48 and 72 hours after infection.
Setting [14] is: 0.2 ml of 0.5% solution into the stomach.

With `CCC(N)C12CC3CC(CC(C3)C1)C2` (stereo not shown) [adapromine, reference compound], in the series on influenza virus B (per os, 1 mg per animal), the “% of diseased mice and of died mice” value is 25% and 12% and 20%. In addition, the “Minimum effective dose against influenza viruses, type B” value in the series on influenza virus B (influenza virus type B) came to 1.0 mg/mouse. For the same molecule, the “Chemotherapeutic index for influenza viruses, type B” value with influenza virus B (influenza virus type B, toxicity vs minimum effective dose) was 6. The molecule also had a Toxicity for mice with mice [1] of 6 mg/mouse. Besides, the median lethal dose (LD50) in series [2] came out at 45 mg/kg.
Consider `CC1=C(C(=O)OC2CC3CCC2(C)C3(C)C)C2Nc3ccccc3N(C)C2O1` (stereo not shown) [compound 1a, isobornyl ester of 2,9-dimethyl-3a,4,9,9a-tetrahydrofuro [2,3-b] quinoxaline-3-carboxylic acid], for which, in the series on influenza virus B (setting [13]), the “% of diseased mice and died mice” value was 20%; the “Efficiency, %” value was 73%; the “Elongation of animal life in test group (compared with control)” value amounted to 2.4 days; the “Mean Incubation” value stood at 11.0. The molecule also yielded a Protection factor in the series with influenza virus B (setting [13]) of 3.7. Also, in the series on influenza virus B (per os, 1 mg per animal), the “% of diseased mice and of died mice” value was 20%; the “Efficiency, %” value amounted to 73%; the “Elongation of animals life in test group compared with control” value came to 2.4 days; the “Mean incubation period” value worked out at 11.0 days. Also, the “Factor of reduction of number of diseased mice (protection factor)” value (from here on “Factor of reduction … (protection factor)”) in the series with influenza virus B (per os, 1 mg per animal) is on record as 3.7. For the same molecule, the “Minimum effective dose against influenza viruses, type B” value with influenza virus B (influenza virus type B) was 0.04 mg/mouse. For the same molecule, in [3], the “Titre of virus (lg) in embryo” value is on record as 3.5 ± 0.3 lg. In addition, the “Inhibition of virus reproduction (lg)” value in [3] (vs solvent control) was 1.5 lg. Also, in series [4], the “Titre of virus (lg) in embryo” value is listed as 2.8 ± 0.4 lg. In addition, the “Inhibition of virus reproduction (lg)” value in [4] (vs solvent control) worked out at 1.7 lg. In addition, in the series on influenza virus C, the “activity against influenza virus C (in words)” value was “inhibits reproduction of influenza virus C”. In addition, the Toxicity for mice in the series on mice [1] was found to be 16 mg/mouse. Besides, in the series on influenza virus [5] (4 days), the “Mortality rate among suckling mice, %, 4 days after infection” value worked out at 0%. Besides, in the series on influenza virus [5] (7 days), the “Mortality rate among suckling mice, %, 7 days after infection” value is 7%. Also, the “Mortality rate among suckling mice, %, 8 days after infection” value in the series with influenza virus [5] (8 days) was found to be 23%. Besides, the “Mortality rate among suckling mice, %, 11 days after infection” value in the series on influenza virus [5] (11 days) is recorded as 23%. In series [6] (setting [14]), the “Efficiency, %” value was found to be 70%; the “Elongation of animal life in group of treated animals” value is on record as 1.5 days; the “Mean incubation period” value is reported as 11.4 days. The “% of diseased mice and mice which died” value in [6] (0.2 ml of 0.5% solution into the stomach, 4 h before and 24, 48, 72, 96 h after infection) was found to be 18.7%. In addition, in series [6] (0.2 ml of 0.5% solution into the stomach, vs physiological saline control), the “Factor of reduction of quantity of diseased mice (protective factor)” value is 3.3. Besides, in [6] (mouse, in vivo), the “activity against the causative agent of tick-borne encephalitis (in words)” value is given as “antiviral activity of the compound against the causative agent of tick-borne encephalitis; also recorded: highly active against the causative agent of tick-borne encephalitis”. The mortality rate in series [6] (test group, control group 62.5%) worked out at 18.7%. The “decrease of mortality rate, times less” value in series [6] (test vs control group) is 3.3 times. The “toxicity lower than that of remantadine, times” value in the series with mice [7] is on record as 2.5-3 times. Further, in series [8] (L-41 tissue culture), the “% of test tubes with degenerated culture” value turned out to be 17% and the “Intensity of reduction of quantity of test tubes with degenerated cultures” value turned out to be 0.18. For the same molecule, in series [8] (L-41 tissue culture, vs 0.9% NaCl solution), the “Factor of reduction of quantity of test tubes with degenerated cultures” value came to 5.3. The “effect on reproduction of RS virus (in words)” value in [8] (tissue culture L-41, strain Novoshakhtinsky 3030 as printed in text) is “inhibits reproduction of RS virus”. In the series on RS virus, the “virus reproduction in the lungs (in words)” value is recorded as “decreases the virus reproduction in the lungs of the animals”. Further, in the series with RS virus (lungs, vs control group), the “mean titre of the virus lower than in control group” value is 1.8-2.0 lg. Also, the “protection and growth of nurslings, course of infection (in words)” value in the series on influenza virus [9] (mouse, in vivo) is “protects their nurslings from infection and death; moreover, it promotes their normal growth as estimated by gain in weight; also recorded: almost does not differ from the weight of young mice borne from control mice; also recorded: promotes an asymptomatic course of infection in pregnant mice and formation of immunity in their posterity”. Further, in the series on influenza virus [9] (plus influenza virus, day 0), the “Mean weight of suckling mice, g, day 0” value was 1.5 g. The “Mean weight of suckling mice, g, day 3” value in the series with influenza virus [9] (plus influenza virus, day 3) was 2.6 g. The “Mean weight of suckling mice, g, day 5” value with influenza virus [9] (plus influenza virus, day 5) is recorded as 3.4 g. Moreover, in the series with influenza virus [9] (plus influenza virus, day 7), the “Mean weight of suckling mice, g, day 7” value turned out to be 3.4 g. Moreover, the “Mean weight of suckling mice, g, day 9” value in the series with influenza virus [9] (plus influenza virus, day 9) was 3.6 g. Besides, the “% of lethal cases among mice after infection of their mothers, in 6 days” value in the series on influenza virus [10] (given to female mice + virus, 6 days) is on record as 3%. Moreover, the “% of lethal cases among mice after infection of their mothers, in 7 days” value in the series on influenza virus [10] (given to female mice + virus, 7 days) came out at 10%. Moreover, in the series on influenza virus [10] (given to female mice + virus, 8 days), the “% of lethal cases among mice after infection of their mothers, in 8 days” value worked out at 10%. The “% of lethal cases among mice after infection of their mothers, in 9 days” value in the series on influenza virus [10] (given to female mice + virus, 9 days) is reported as 10%. Also, in the series on influenza virus [10] (given to female mice + virus, 10 days), the “% of lethal cases among mice after infection of their mothers, in 10 days” value turned out to be 13%. Besides, the “protection of sucklings (in words)” value in the series on influenza virus [10] (given to pregnant or nursing mice) is “protects the sucklings from trasnplacental infection with the virus or infection from a diseased mouse”. For the same molecule, the “spectrum of antiviral activity (in words)” value with viruses is “most pronounced effect against the virus of the tick-borne encephalitis, epidemic, influenza viruses A, B and C, including those resistant to remantadine, and also the virus causing respiratory syncytial infection”. Moreover, the “Titre of virus (lg) in embryo” value in series [11] is recorded as 3.6 ± 0.3 lg. Further, the “Inhibition of virus reproduction (lg)” value in series [11] (vs solvent control) came to 1.6 lg. Further, the “Titre of virus (lg) in embryo” value in series [12] was 3.2 ± 0.3 lg. The “Inhibition of virus reproduction (lg)” value in series [12] (vs solvent control) was 1.3 lg.
In the case of `CCN1c2ccccc2NC2C(C(=O)OC3CC4CCC3(C)C4(C)C)=C(C)OC21` (stereo not shown) [compound 1b, isobornyl ester of 2-methyl-9-ethyl-3a,4,9,9a-tetrahydrofuro [2,3-b] quinoxaline-3-carboxylic acid], in the series on influenza virus B (per os, 1 mg per animal), the “% of diseased mice and of died mice” value stood at 27%; the “Efficiency, %” value is 65%; the “Elongation of animals life in test group compared with control” value was determined as 2.2 days; the “Mean incubation period” value is 10.0 days. Also, the “Factor of reduction … (protection factor)” value in the series with influenza virus B (per os, 1 mg per animal) came to 2.9.
The like results for `CCN1c2ccccc2NC2C(C(=O)OC3CC4CCC3(C)C4(C)C)=C(C)OC21` (stereo not shown) [compound 1c, bornyl-2-methyl-9-ethyl-3a,4,9,9a-tetrahydrofuro [2,3-b] quinoxaline-3-carboxylate] were, in that order, 25%, 64%, 2.4 days, 11.0 days and 2.8.
On to `CC(N)C12CC3CC(CC(C3)C1)C2` (stereo not shown) [remantadine, reference compound], for which, in the series with influenza virus B (setting [13]), the “% of diseased mice and died mice” value is reported as 20%; the “Efficiency, %” value is 73%; the “Elongation of animal life in test group (compared with control)” value amounted to 2.3 days; the “Mean Incubation” value was 10.9. Also, in the series on influenza virus B (setting [13]), the Protection factor is reported as 3.7. Further, in the series on mice [1], the Toxicity for mice amounted to 6 mg/mouse. In addition, the LD50 in [2] was 640 mg/kg.
Take “bornyl-3a,5-dimethyl-2-phenyl-3a,4,4a,5,10,10a-hexahydro-1,3,4-thiadiazole[2,3-a] quinoxaline (2,3-d) pyrrole-4-carboxylate [compound 1d]”: in the series with influenza virus B (per os, 1 mg per animal), the “% of diseased mice and of died mice” value came out at 20%; the “Efficiency, %” value is 72%; the “Elongation of animals life in test group compared with control” value was found to be 2.5 days; the “Mean incubation period” value came out at 11.0 days. The “Factor of reduction … (protection factor)” value in the series on influenza virus B (per os, 1 mg per animal) is recorded as 3.6.
The like results for “isobornyl 3a,5-dimethyl-2-phenyl-3a,4,4a,5,10,10a-hexahydro-1,3,4-thiadiazole [2,3-a] quinoxaline [2,3-d]-pyrrole-4-carboxylate [compound 1e]” were, in that order, 21%, 71%, 2.4 days, 10.9 days and 3.4.
